Measurements published in patent US7220784B2, “Substituted stilbenes and their reactions” (priority 2000, dated 2007).
Like-named read-outs stand apart in the source and are kept apart here.

How the values were obtained:
[1] = tested on: K562 human myelogeneous leukaemia cell line; test: Cytotoxicity/growth inhibition assay (MTT), K562; assay type: cell-based; details: MTT, read-out: K562 IC50
Description: (§1) In addition to the cell lines described in this paper, other established human cell lines (K562, HUVEC, H460, BE, H529, and HT29) were used in the cytotoxicity/growth inhibition assay. • (1) Inhibition of tubulin assembly. The figure quoted is the concentration required to reduce assembly of tubulin by 50%. Tubulin assembly is monitored by light scatter/absorption at 350 nm.
(§2) (2) Competition for the colchicine binding site on tubulin. The figure quoted represents the % of ^3H-colchicine bound following co-incubation of test compound and ^3H-cochicine with isolated tubulin. Where ester pro-drugs were used the experiments were carried out in the presence and absence of porcine liver esterase. • (3) Cytotoxicity/growth inhibition assay. This was carried out by the MTT assay. • (4) Permeability (shape-change) assay in endothelial cells. […] This involved the diffusion of a fluorescently labelled dextran through a barrier of endothelial cells (HUVEC) grown to confluence on a porous membrane. The effect of agents to alter the shape of these cells results in an increase in the permeability of the cells to the dye. The figure represents the increase in permeability over control cultures when drug is added (30 minutes, 1 mM.). • (5) Experiments to study the anti-vascular effects of these agents were carried out as described previously by our group. […] The anti-vascular effects of the agents were monitored by either positron emission tomography (PET) or by histologogical examination following treatment of mice bearing T50:80 murine breast tumours, or H460 human lung tumours. • (6) Anti-tumour efficacy of agents was determined in xenografts of H460 human lung cancer. Animals (n=5) were trated either with 5 daily injections and tumour size measured with time following treatment. • (7) The pharmacokinetic profile of agents was determined in mice following injection with drug. Blood was taken at various times following treatment and analysed by HPLC with UV detection. […] (AND(P)H:quinone oxidoreductace, EC 1.6.99.2). DT-diaphorase is an enzyme over-expressed in a number of human tumours. […] This two-electron reducing enzyme can be used to selectively activate prodrugs within cancers which over-express the enzyme.

[2] = tested on: P388 murine leukaemia cell line; test: Cytotoxicity/growth inhibition assay (MTT), P388; assay type: cell-based
Description: as §2

A2780 = test: Cytotoxicity/growth inhibition assay (MTT), A2780; assay type: cell-based; details: read-out: A2780 IC50
Description: as §1, with “The following assays (1–5) were carried out as described in our paper (Woods, et al, British Journal of Cancer, 71, 705–711 (1995)). In addition” for “In addition”
(2) Competition for the colchicine binding site on tubulin. The figure quoted represents the % of ^3H-colchicine bound following co-incubation of test compound and ^3H-cochicine with isolated tubulin. Where ester pro-drugs were used the experiments were carried out in the presence and absence of porcine liver esterase. • (3) Cytotoxicity/growth inhibition assay. This was carried out by the MTT assay. • (4) Permeability (shape-change) assay in endothelial cells. This was carried out using a method based on that of Watts et al. (Anticancer Res., 17, 71–75, (1997)). This involved the diffusion of a fluorescently labelled dextran through a barrier of endothelial cells (HUVEC) grown to confluence on a porous membrane. The effect of agents to alter the shape of these cells results in an increase in the permeability of the cells to the dye. The figure represents the increase in permeability over control cultures when drug is added (30 minutes, 1 mM.). • (5) Experiments to study the anti-vascular effects of these agents were carried out as described previously by our group. (Zhao et al, European Journal of Nuclear Medicine, 26, 231–238 (1999)). The anti-vascular effects of the agents were monitored by either positron emission tomography (PET) or by histologogical examination following treatment of mice bearing T50:80 murine breast tumours, or H460 human lung tumours. • (6) Anti-tumour efficacy of agents was determined in xenografts of H460 human lung cancer. Animals (n=5) were trated either with 5 daily injections and tumour size measured with time following treatment. • (7) The pharmacokinetic profile of agents was determined in mice following injection with drug. Blood was taken at various times following treatment and analysed by HPLC with UV detection. The HPLC conditions were isocratic using a 5 micron C18 BDS column (150×4.6) ad eluting with 75% MeOH in water with a detection wavelength of 290 nm. […] (AND(P)H:quinone oxidoreductace, EC 1.6.99.2). DT-diaphorase is an enzyme over-expressed in a number of human tumours. […] This two-electron reducing enzyme can be used to selectively activate prodrugs within cancers which over-express the enzyme.

tubulin [3] = test: MA IC50 (Tables 12-26, abbreviation not defined); assay type: biochemical
tubulin [4] = test: CD IC50 (Tables 12-26, abbreviation not defined); assay type: binding
K562 = K562 cell cycle analysis; assay type: cell-based, human; details: K562; for % of cells in G0–G1 / % of cells in G2-M / % of cells in S phase: of cells with DNA content = 2 n or >2 n

Row | IC50 (tubulin [3]) | IC50 (tubulin [4]) | Compound | IC50 ([1]; Homo sapiens, K562) | IC50 ([2]; Mus musculus, P388, MTT) | IC50 (A2780) | IC50 ([2]; MTT) | IC50 [1] | % of cells with DNA content <2 n (K562) | % of cells in G0–G1 (K562) | % of cells in G2-M (K562) | % of cells in S phase (K562)
1 |  |  | COc1ccc(/C(C)=C\c2cc(OC)c(OC)c(OC)c2)cc1O [Compound 20, Z-1-(3′,4′,5′-trimethoxyphenyl)-2-(3″-hydroxy-4″-methoxyphenyl)propene] | 1.8 µM | 7 µM |  |  |  |  |  |  | 
2 |  |  | COc1cc(C=Cc2ccc(C=O)cc2)cc(OC)c1OC [Compound 96-188] |  |  | 0.081 µM | 0.32 µM |  |  |  |  | 
3 | > 10 µM | > 25 µM | Cc1ccc(C=Cc2ccc(C)c(C)c2)cc1 [Compound 137] | 3.4 µM | 2 µM |  |  |  |  |  |  | 
4 | > 10 µM | > 25 µM | COc1ccc(C=Cc2ccc(C)c(C)c2)cc1[N+](=O)[O-] [Compound 139] | 1.8 µM | 20 µM |  |  |  |  |  |  | 
5 | > 10 µM | > 25 µM | COc1ccc(/C=C/c2ccc(C)c(C)c2)cc1[N+](=O)[O-] [Compound 140] |  |  |  | > 50 µM | 24 µM |  |  |  | 
6 | > 10 µM | > 25 µM | COc1ccc(C=Cc2ccc(C)c(C)c2)cc1 [Compound 141] | 1.6 µM | 4.9 µM |  |  |  |  |  |  | 
7 | > 10 µM | > 25 µM | COc1ccc(/C=C/c2ccc(C)c(C)c2)cc1 [Compound 142] |  |  |  | 20.5 µM | > 50 µM |  |  |  | 
8 | > 10 µM | > 25 µM | COc1ccc(C=Cc2ccc(C)c(C)c2)cc1Br [Compound 143] | 1.15 µM | 2.5 µM |  |  |  |  |  |  | 
9 | > 10 µM | > 25 µM | COc1ccc(/C=C/c2ccc(C)c(C)c2)cc1Br [Compound 144] |  |  |  | > 50 µM | > 50 µM |  |  |  | 
10 | 6.57 µM | > 25 µM | COc1ccc(C=Cc2ccc(C)c(C)c2)cc1F [Compound 147] | 0.09 µM | 1.7 µM |  |  |  | 28% | 10% | 57% | 33%
11 | > 10 µM | > 25 µM | COc1ccc(/C=C/c2ccc(C)c(C)c2)cc1F [Compound 148] |  |  |  | 36 µM | 2.5 µM |  |  |  | 
12 | > 10 µM | > 25 µM | Cc1ccc(C=Cc2ccc(C)c(F)c2)cc1C [Compound 149] | 0.39 µM | 7.2 µM |  |  |  |  |  |  | 
13 | > 10 µM | > 25 µM | Cc1ccc(/C=C/c2ccc(C)c(F)c2)cc1C [Compound 150] |  |  |  | 40 µM | > 50 µM |  |  |  | 
14 | > 10 µM | > 25 µM | Cc1ccc(C=Cc2ccc(C)c([N+](=O)[O-])c2)cc1C [Compound 151] | 1.5 µM | 9.7 µM |  |  |  |  |  |  | 
15 | > 10 µM | > 25 µM | Cc1ccc(/C=C/c2ccc(C)c([N+](=O)[O-])c2)cc1C [Compound 152] |  |  |  | > 50 µM | > 50 µM |  |  |  | 
16 | > 10 µM | > 25 µM | COc1ccc(/C=C/c2cc(OC)c(OC)c(O[Si](C)(C)C(C)(C)C)c2)cc1F [Compound 241] |  |  |  |  | 10 µM |  |  |  | 
17 | > 10 µM | > 25 µM | CCOc1cc(C=Cc2ccc(OC)c(Br)c2)cc(OCC)c1OCC [Compound 247] | 0.6 µM |  |  |  |  |  |  |  | 
18 | > 10 µM | > 25 µM | CCOc1cc(/C=C/c2ccc(OC)c(Br)c2)cc(OCC)c1OCC [Compound 248] |  |  |  |  | > 50 µM |  |  |  | 
19 | > 10 µM | > 25 µM | CCOc1cc(C=Cc2ccc(OC)cc2)cc(OCC)c1OCC [Compound 249] | 0.5 µM |  |  |  |  |  |  |  | 
20 | > 10 µM | > 25 µM | CCOc1cc(/C=C/c2ccc(OC)cc2)cc(OCC)c1OCC [Compound 250] |  |  |  |  | > 50 µM |  |  |  | 
21 | > 10 µM | > 25 µM | CCOc1cc(/C=C/c2ccc(OC)c(O)c2)cc(OCC)c1OCC [Compound 254] |  |  |  |  | 0.2 µM |  |  |  | 
22 | > 10 µM | > 25 µM | CCOc1cc(C=Cc2ccc(OC)c(Cl)c2)cc(OCC)c1OCC [Compound 257] | 0.45 µM |  |  |  |  |  |  |  | 
23 | > 10 µM | > 25 µM | CCOc1cc(/C=C/c2ccc(OC)c(Cl)c2)cc(OCC)c1OCC [Compound 258] |  |  |  |  | 7 µM |  |  |  | 

Row | Compound | IC50 (tubulin [3]) | IC50 (tubulin [4]) | IC50 ([1]; Homo sapiens, K562) | IC50 ([2]; Mus musculus, P388, MTT) | IC50 (A2780) | IC50 ([2]; MTT) | IC50 [1] | % of cells with DNA content <2 n (K562) | % of cells in G0–G1 (K562) | % of cells in G2-M (K562) | % of cells in S phase (K562)
24 | COc1cc(/C=C\c2cccc(O)c2)cc(OC)c1OC [Compound 101] | > 10 µM | > 25 µM | 0.14 µM | 0.3 µM |  |  |  |  |  |  | 
25 | COc1cc(/C=C\c2ccc(C)c(C)c2)cc(OC)c1OC [Compound 103] | 2 µM | > 25 µM | 0.04 µM | 0.1 µM |  |  |  |  |  |  | 
26 | COc1cc(/C=C/c2ccc(C)c(C)c2)cc(OC)c1OC [Compound 104] | > 10 µM | > 25 µM |  |  |  | 20 µM | 35.8 µM |  |  |  | 
27 | COc1ccc(C=Cc2ccc(C)c(C)c2)cc1O [Compound 146] | 3.09 µM | 12.5 µM | 0.07 µM | 0.4 µM |  |  |  | 31% | 8% | 65% | 27%
28 | COc1ccc(C(C)=Cc2cc(OC)c(OC)c(OC)c2)cc1O [Compound 200] | 9 µM | > 25 µM | 2 µM | 7 µM |  |  |  |  |  |  | 
29 | COc1ccc(/C=C\c2cc(O)c(OC)c(OC)c2)cc1F [Compound 242] | 1.25 µM | 9 µM | 0.02 µM |  |  |  |  | 29% | 7% | 71% | 22%
30 | COc1ccc(/C=C/c2cc(O)c(OC)c(OC)c2)cc1F [Compound 243] | > 10 µM | > 25 µM |  |  |  |  | 5 µM |  |  |  | 
31 | CCOc1cc(/C=C/c2ccc(OC)c(F)c2)cc(OCC)c1OCC [Compound 252] | > 10 µM | > 25 µM |  |  |  |  | > 50 µM |  |  |  | 
